Source: article PMC2424174, “Suppression of Tumor Growth and Angiogenesis by a Specific Antagonist of the Cell-Surface Expressed Nucleolin” (PLoS ONE, 2008)

Legend:
[1] = test system: MDA-MB-231 cells; experiment: Colony formation in soft agar, MDA-MB-231; type: cell-based, human
Experimental: (§1) Figure 4 HB-19 inhibits colony formation in soft agar by tumor cell lines. (A) MDA-MB-231 cells in culture medium were seeded in triplicate in the absence (histogram C) or presence of 0.1, 0.5 and 1 of µM HB-19, or 0.1 µM of the anti-nucleolin mAb MS-3 or control IgG, or 10 µM bisphosphonate (BisP). (B) Various tumor cell lines (as indicated) in culture medium were seeded in triplicate in the absence (histogram Control) or presence of 5 µM HB-19. After 10–21 days, colonies with diameters greater than 50 µm were scored as positive. Statistical significance: *0.01<p<[…], **p<0.01, ***p<0.001.
(§2) Carcinoma cells (2×10^4) were mixed in 0.35% top agar, diluted in complete medium (DMEM containing 10% FBS) in the absence or presence of HB-19, and plated onto 0.8% bottom agar into 12-well plates. Cells were treated twice a week during 10 to 21 days. Colonies with diameters greater than 50 µm were scored as positive using a phase contrast microscope equipped with a measuring grid at magnification 100× [45]. The number of colonies was determined by analyzing 5 fields/well from 3 wells and the test was repeated at least twice.

[2] = test system: MDA-MB-231 tumor-cell xenografts; experiment: MDA-MB-231 xenograft in nude mice; type: in vivo, human
Experimental: Figure 8 HB-19 inhibits tumor growth in the nude mice. (A) HB-19 inhibits the growth of MDA-MB-231 tumor-cell xenografts. Cells (2×10^6) were injected subcutaneously into the right flank of female nude mice. Two weeks later, mice with a palpable tumor of approximately 40 mm^3 in volume were randomly separated into three groups (n = 5) and were given peritumoral injections 3 times/week of 0.1 ml PBS alone (Control), HB-19 (5 mg/kg), or Tamoxifen (Tmx) 10 mg/kg) for 6 weeks. (B) HB-19 inhibits the growth of MDA-MB-435 tumor-cell xenografts. Cells (1×10^6) were injected in the mammary fat pad of female nude mice. Two weeks later, mice with a palpable tumor were randomly separated into three groups (n = 10) and were given intraperitoneal injections 3 times/week of 0.1 ml PBS alone (Control), HB-19 (5 mg/kg), or 5-fluouracil (5-FU, 40 mg/kg) for 8 weeks. At the end of each experiment (in A and B), mice were sacrificed and the tumors were excised and weighed. The results are presented as the mean weight ±standard deviation (±S.D.) obtained from the number of mice in each group. (C, D) Inhibition of tumor development in mice treated by intraperitoneal (i.p.) and subcutaneous (s.c.) administration of HB-19. MDA-MB-231 tumor bearing mice in three groups (n = 10) were treated with HB-19 (10 mg/kg) by i.p. or s.c. injections, 3 times/week for 28 days. […] Statistical significance: *p<0.05, **p<0.01, ***p<0.001.

[3] = test system: B16 cells; experiment: Colony formation in soft agar, B16; type: cell-based, mouse; conditions: 5 µM HB-19, B16
Experimental: as §1, §2

[4] = test system: MDA-MB-435 cells; experiment: Colony formation in soft agar, MDA-MB-435; type: cell-based, human; conditions: 5 µM HB-19, MDA-MB-435
Experimental: as §1, §2

[5] = test system: MDA-MB-231 cells; experiment: HB-19 entry in MDA-MB-231 cells, immunofluorescence; type: cell-based, human; conditions: 5 µM HB-19/Btn, 1 hour
[6] = test system: HUVECs; experiment: FACScan competition of HB-19/Btn binding to HUVECs; set-up: species or system human; conditions: 1 µM HB-19/Btn, 4 °C, competitor 50 µM
Experimental: Figure 3 Specific binding and entry of HB-19 in endothelial cells. (A) HB-19/Btn forms a stable complex with nucleolin expressed on the surface of HUVECs. Cells were incubated (45 min, 20°C) with 0, 1, 2, 4, 8 and 12 µM of HB-19/Btn before preparation of surface/cytoplasmic and nuclear extracts and recovery of surface nucleolin from the surface/cytoplasmic extracts as in Figure 2A. Material extracted from 2×10^7 and 2×10^6 cells was analyzed in panels Surface and Surface/Cytoplasm or Nucleus, respectively. Immunoblotting was with the anti-nucleolin mAb D3. (B) The specific binding of HB-19/Btn to HUVECs. The binding of 1 µM HB-19/Btn was studied at 4 °C by FACScan analysis. To show the specificity of binding, the reaction was carried out in the absence or presence of 50 µM HB-19, F3, or 9Arg peptides. The ordinate gives the relative cell number, whereas the abscissa gives the relative fluorescence intensity. (C) HB-19 entry in HUVECs. Cells were incubated with 5 µM of HB-19/Btn (1 hour, 37°C) before fixation in PFA (for surface binding) or PFA-Triton (for entry), respectively. Cells were then successively incubated with rabbit anti-biotin antibodies and goat Texas Red-conjugated anti-rabbit IgG, and processed for confocal microscopy. The scans of cells toward the middle cell layer are presented (with the DAPI stained nuclei).

[7] = test system: tumor cells; experiment: Apoptosis in HB-19 treated cells; type: cell-based; conditions: not shown
[8] = HB-19 10 mg/kg, intraperitoneal, 3 times/week, 28 days, n = 10

## pseudo-tripeptide Lysψ(CH2N)-Pro-Arg coupled to a template (H2NLys-Lys-Lys-Gly-Pro-Lys-Glu-Lys-AhxCONH2) [HB-19, pseudopeptide presenting pentavalently the pseudo-tripeptide Lysψ(CH2N)-Pro-Arg coupled to a template]
[1]; 1 µM HB-19, triplicate, colonies >50 µm, 10–21 days
  reduction of colony-forming capacity: 50%
[1]; 5 µM HB-19, MDA-MB-231
  colony formation: reduced markedly
[1]; HB-19 0.1, 0.5 and 1 µM, anti-nucleolin mAb MS-3 0.1 µM
  reduction of colony-forming capacity: reduced significantly
[2]; HB-19 5 mg/kg vs tamoxifen 10 mg/kg, peritumoral
  antitumoral activity compared with tamoxifen: superior to the conventional cancer drug tamoxifen
[2]; HB-19 5 mg/kg, peritumoral, 3 times/week, 6 weeks
  tumor elimination: in some cases eliminated measurable tumors
[2]; HB-19 5 mg/kg, peritumoral, 3 times/week, 6 weeks, n = 5
  inhibition of tumor growth: > 95%
[2]; [8]
  complete eradication of the tumor: Complete eradication of the tumor was observed in several mice
  inhibition in tumor volume: more than 95%
[2]; HB-19 10 mg/kg, subcutaneous, 3 times/week, 28 days, n = 10
  inhibition in tumor volume: more than 95%
[3]
  colony formation: reduced markedly
[4]
  colony formation: reduced markedly
[5]; 37°C
  internalization and subcellular localization: internalized and is concentrated in the cytoplasm without translocation into the nucleus
[5]; 20°C
  internalization at 20°C: remains attached to the cell surface without entering the cytoplasm
[6]
  prevention of HB-19/Btn binding: prevented by the excess HB-19
[7]
  apoptosis: not observed
